Patent US20250186405A1, “Compound For Use In Treating Narcolepsy” (Alkermes, Inc., priority 2023, published 2025)

Test system: subjects with idiopathic hypersomnia (IH)
Assay: Part 6 POC IH: treatment-emergent adverse events, single doses, crossover
[1] = Total (any Compound A dose), N = 8

Protocol: Part 6 consisted of a 4-way, 4-period crossover study design in approximately 8 subjects (2 subjects per sequence; minimum of 4 subjects with 1 subject per sequence). […] Treatments were administered under fasted state.
Subjects were randomized to 1 of 4 sequences. […] No food was given for at least 3 hours after dose administration (i.e., fast can be broken after the 3-hour PK time point is collected). Water was allowed ad libitum except for 1 hour before and 1 hour after study drug administration. Safety assessments including AEs, safety ECGs, vital signs, and clinical laboratory tests were conducted, and plasma PK samples were collected.
Adverse events (AEs) and serious adverse events (SAEs) were monitored continuously until the completion of the study.
Eight subjects with IH were dosed in Part 6 (POC in IH) in a randomized 4-sequence 4-period cross-over design.

CS(=O)(=O)N[C@H]1CCCN2C(=O)COc3ccccc3C3CCC(CC3)OCC12 (stereo partly drawn) [Compound A, N-[(4S,4aR,7α,10α)-1,2,3,4,4a,5,7,8,9,10,16,17-dodecahydro-17-oxo-7,10-ethanopyrido[1,2-d][1,7,4]benzodioxaazacyclotridecin-4-yl]methanesulfonamide]
3 n (%): TEAE by Preferred Term: Headache [1]
7 (87.5) n (%): Any TEAE (25 mg single dose, N = 8) | Subjects with at least one TEAE (25 mg single dose, N = 8) | Subjects with at least one treatment-related TEAE (25 mg single dose, N = 8) | TEAE by Highest Relationship: Related (25 mg single dose, N = 8)
1 (12.5) n (%): Drug Related TEAE by Preferred Term: Cold sweat (25 mg single dose, N = 8) | Drug Related TEAE by Preferred Term: Dysuria (25 mg single dose, N = 8) | Drug Related TEAE by Preferred Term: Feeling jittery (25 mg single dose, N = 8) | Drug Related TEAE by Preferred Term: Micturition urgency (25 mg single dose, N = 8) | Drug Related TEAE by Preferred Term: Middle insomnia (25 mg single dose, N = 8) | Drug Related TEAE by Preferred Term: Palpitations (25 mg single dose, N = 8) | Drug Related TEAE by Preferred Term: Supraventricular extrasystoles (25 mg single dose, N = 8) | Drug Related TEAE by Preferred Term: Tachycardia (25 mg single dose, N = 8) | Drug Related TEAE by Preferred Term: Visual impairment (25 mg single dose, N = 8) | TEAE by Highest Severity: Moderate (25 mg single dose, N = 8) | TEAE by Preferred Term: Cold sweat (25 mg single dose, N = 8) | TEAE by Preferred Term: Dysuria (25 mg single dose, N = 8) | TEAE by Preferred Term: Epistaxis (25 mg single dose, N = 8) | TEAE by Preferred Term: Feeling jittery (25 mg single dose, N = 8) | TEAE by Preferred Term: Headache (25 mg single dose, N = 8) | TEAE by Preferred Term: Micturition urgency (25 mg single dose, N = 8) | TEAE by Preferred Term: Middle insomnia (25 mg single dose, N = 8) | TEAE by Preferred Term: Palpitations (25 mg single dose, N = 8) | TEAE by Preferred Term: Supraventricular extrasystoles (25 mg single dose, N = 8) | TEAE by Preferred Term: Tachycardia (25 mg single dose, N = 8) | TEAE by Preferred Term: Vessel puncture site pain (25 mg single dose, N = 8) | TEAE by Preferred Term: Visual impairment (25 mg single dose, N = 8) | Drug Related TEAE by Preferred Term: Cold sweat [1] | Drug Related TEAE by Preferred Term: Dysuria [1] | Drug Related TEAE by Preferred Term: Feeling jittery [1] | Drug Related TEAE by Preferred Term: Micturition urgency [1] | Drug Related TEAE by Preferred Term: Palpitations [1] | Drug Related TEAE by Preferred Term: Supraventricular extrasystoles [1] | Drug Related TEAE by Preferred Term: Tachycardia [1] | Drug Related TEAE by Preferred Term: Visual impairment [1]
7 n (%): TEAE by Highest Severity: Mild [1]
2 (25.0) n (%): Drug Related TEAE by Preferred Term: Dizziness (25 mg single dose, N = 8) | Drug Related TEAE by Preferred Term: Insomnia (25 mg single dose, N = 8) | TEAE by Preferred Term: Dizziness (25 mg single dose, N = 8) | TEAE by Preferred Term: Insomnia (25 mg single dose, N = 8) | Drug Related TEAE by Preferred Term: Dizziness [1] | Drug Related TEAE by Preferred Term: Insomnia [1] | Drug Related TEAE by Preferred Term: Middle insomnia [1]
5 (62.5) n (%): Drug Related TEAE by Preferred Term: Pollakiuria [1]
6 (75.0) n (%): TEAE by Highest Severity: Mild (25 mg single dose, N = 8)
8 (100) n (%): Subjects with at least one treatment-related TEAE [1]
well tolerated: Tolerability (IH, 5, 12 and 25 mg)
5 n (%): TEAE by Preferred Term: Pollakiuria [1]
100%: Subjects with at least one TEAE (IH, N = 8, all periods)
2 n (%): TEAE by Preferred Term: Insomnia [1] | TEAE by Preferred Term: Middle insomnia [1] | TEAE by Preferred Term: Vessel puncture site bruise [1]
4 n (%): TEAE by Preferred Term: Dizziness [1]
0 n (%): Any SAEs (25 mg single dose, N = 8) | Death (25 mg single dose, N = 8) | TEAE by Highest Relationship: Not Related (25 mg single dose, N = 8) | TEAE by Highest Severity: Severe (25 mg single dose, N = 8) | TEAE by Preferred Term: Blood creatine phosphokinase increased (25 mg single dose, N = 8) | TEAE by Preferred Term: Blood creatinine increased (25 mg single dose, N = 8) | TEAE by Preferred Term: Dermatitis contact (25 mg single dose, N = 8) | TEAE by Preferred Term: Nausea (25 mg single dose, N = 8) | TEAE by Preferred Term: Neck pain (25 mg single dose, N = 8) | TEAE by Preferred Term: Phlebitis (25 mg single dose, N = 8) | TEAE by Preferred Term: Presyncope (25 mg single dose, N = 8) | TEAE by Preferred Term: Skin irritation (25 mg single dose, N = 8) | TEAE by Preferred Term: Steatorrhoea (25 mg single dose, N = 8) | TEAE by Preferred Term: Urinary tract infection (25 mg single dose, N = 8) | TEAE by Preferred Term: Vessel puncture site bruise (25 mg single dose, N = 8) | TEAE by Preferred Term: Vomiting (25 mg single dose, N = 8) | AE Leading to Study Drug Discontinuation [1] | Any SAEs [1] | Death [1] | TEAE by Highest Relationship: Not Related [1] | TEAE by Highest Severity: Severe [1] | TEAE by Preferred Term: Dermatitis contact [1] | TEAE by Preferred Term: Vomiting [1]
4 (50.0) n (%): Drug Related TEAE by Preferred Term: Pollakiuria (25 mg single dose, N = 8) | TEAE by Preferred Term: Pollakiuria (25 mg single dose, N = 8)
8 n (%): Any TEAE [1] | Subjects with at least one TEAE [1] | TEAE by Highest Relationship: Related [1]
1 n (%): TEAE by Highest Severity: Moderate [1] | TEAE by Preferred Term: Blood creatine phosphokinase increased [1] | TEAE by Preferred Term: Blood creatinine increased [1] | TEAE by Preferred Term: Cold sweat [1] | TEAE by Preferred Term: Dysuria [1] | TEAE by Preferred Term: Epistaxis [1] | TEAE by Preferred Term: Feeling jittery [1] | TEAE by Preferred Term: Micturition urgency [1] | TEAE by Preferred Term: Nausea [1] | TEAE by Preferred Term: Neck pain [1] | TEAE by Preferred Term: Palpitations [1] | TEAE by Preferred Term: Phlebitis [1] | TEAE by Preferred Term: Presyncope [1] | TEAE by Preferred Term: Skin irritation [1] | TEAE by Preferred Term: Steatorrhoea [1] | TEAE by Preferred Term: Supraventricular extrasystoles [1] | TEAE by Preferred Term: Tachycardia [1] | TEAE by Preferred Term: Urinary tract infection [1] | TEAE by Preferred Term: Vessel puncture site pain [1] | TEAE by Preferred Term: Visual impairment [1]
